Biological target: T1, Hyaluronidase from bovine testes (Bos taurus, UniProt Q2YDK3)
T1 sequence (Q2YDK3 36-553): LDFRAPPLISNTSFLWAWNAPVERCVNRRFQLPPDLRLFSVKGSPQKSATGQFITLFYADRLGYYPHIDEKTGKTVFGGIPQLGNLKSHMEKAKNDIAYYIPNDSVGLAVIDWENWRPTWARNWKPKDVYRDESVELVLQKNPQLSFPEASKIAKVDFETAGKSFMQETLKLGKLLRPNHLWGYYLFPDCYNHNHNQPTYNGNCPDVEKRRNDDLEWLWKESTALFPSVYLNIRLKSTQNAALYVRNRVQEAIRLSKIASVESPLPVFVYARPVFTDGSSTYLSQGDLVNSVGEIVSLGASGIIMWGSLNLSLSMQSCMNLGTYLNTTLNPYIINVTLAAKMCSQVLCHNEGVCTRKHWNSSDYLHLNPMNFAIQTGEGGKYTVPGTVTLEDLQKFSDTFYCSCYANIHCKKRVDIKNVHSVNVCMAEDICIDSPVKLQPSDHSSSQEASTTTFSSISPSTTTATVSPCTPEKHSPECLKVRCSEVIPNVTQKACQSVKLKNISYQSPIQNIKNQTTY
Assay: colorimetric hyaluronidase inhibition assay
Type: biochemical

SMILES	IC50 [µM]
O=C(O)CCC(=O)C(=O)O [AKG, α-ketoglutarate]	2820 ± 38
O=C(O)c1cc(=O)c2c(OCC(O)COc3cccc4oc(C(=O)O)cc(=O)c34)cccc2o1 [DSCG, disodium cromoglycate]	360 ± 41

From article PMC11444863 (Bioscience of Microbiota, Food and Health, 2024)
